Source: patent US12673936B2, “Isoindolinone compounds, and uses thereof” (HANGZHOU GLUBIO PHARMACEUTICAL CO., LTD., priority 2021, dated 2026)
One block for each compound: values may come before it.

What was measured:
HiBiT tagged GSPT1 = HiBiT tagged GSPT1 (Homo sapiens, UniProt P15170+Q96SW2); experiment: GSPT1 degradation assay (HiBiT assay); type: cell-based; conditions: for Dmax: HT-1080, HT-1080 cells; for Dmax / HiBiT GSPT1: Dmax: 20 hours, maximum GSPT1 degradation
Procedure: (§1) CK1α and GSPT1 Degradation Assay (HiBiT Assay) The following is an example of an assay that can be used to determine the dose-dependent CK1α and GSPT1 degradation activities of test compounds in a human cell line such as HT-1080 ([…]). HT-1080 cells stably overexpressing wild-type CRBN, GSPT1A(1-138)/G575N mutant and HiBiT tagged CK1α or GSPT1 were seeded into 384-well plates (Cat #3764, Corning) pre-spotted with DMSO or test compounds. Increasing concentrations of test compounds (ranging from 3.162×10^-4 μM to 10 μM at a 3.16-fold increment) or DMSO were dispensed into an empty 384-well plate using an Echo Acoustic Liquid Handler (Beckman Coulter). About 10,000 cells in complete DMEM cell culture media were seeded per well. […] Luminescence was then measured with an EnVision plate reader (PerkinElmer) or a PHERAstar plate reader (BMG Labtech). All CK1α or GSPT1 degradation curves were processed using Collaborative Drug Discovery Vault softwares (Burlingame, CA., www.collaborativedrug.com). CK1α or GSPT1 levels in compound-treated wells were normalized to that of DMSO control and expressed as Percent of Control (PoC, y). […]

HiBiT tagged CK1α = HiBiT tagged CK1α (Homo sapiens, UniProt P48729+Q96SW2); experiment: CK1α degradation assay (HiBiT assay); type: cell-based; conditions: 20 hours; for Dmax: HT-1080, HT-1080 cells; for Dmax / HiBiT CK1α: Dmax: maximum CK1α degradation; for DC50 / HiBiT CK1α: Dmax: HT-1080 cells; for DC50: concentration at 50% CK1α degradation
Procedure: as §1

Chain of HiBiT tagged CK1α (P48729 whole entry): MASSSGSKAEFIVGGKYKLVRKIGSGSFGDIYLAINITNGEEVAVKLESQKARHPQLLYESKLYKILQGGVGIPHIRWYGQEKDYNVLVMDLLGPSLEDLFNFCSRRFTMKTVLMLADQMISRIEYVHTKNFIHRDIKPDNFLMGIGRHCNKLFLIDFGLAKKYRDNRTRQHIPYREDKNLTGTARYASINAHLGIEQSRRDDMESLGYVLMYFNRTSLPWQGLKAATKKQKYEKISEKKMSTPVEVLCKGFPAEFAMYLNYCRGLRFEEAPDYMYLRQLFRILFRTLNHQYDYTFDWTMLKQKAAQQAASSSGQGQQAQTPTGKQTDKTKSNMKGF
Chain of HiBiT tagged CK1α (Q96SW2 whole entry): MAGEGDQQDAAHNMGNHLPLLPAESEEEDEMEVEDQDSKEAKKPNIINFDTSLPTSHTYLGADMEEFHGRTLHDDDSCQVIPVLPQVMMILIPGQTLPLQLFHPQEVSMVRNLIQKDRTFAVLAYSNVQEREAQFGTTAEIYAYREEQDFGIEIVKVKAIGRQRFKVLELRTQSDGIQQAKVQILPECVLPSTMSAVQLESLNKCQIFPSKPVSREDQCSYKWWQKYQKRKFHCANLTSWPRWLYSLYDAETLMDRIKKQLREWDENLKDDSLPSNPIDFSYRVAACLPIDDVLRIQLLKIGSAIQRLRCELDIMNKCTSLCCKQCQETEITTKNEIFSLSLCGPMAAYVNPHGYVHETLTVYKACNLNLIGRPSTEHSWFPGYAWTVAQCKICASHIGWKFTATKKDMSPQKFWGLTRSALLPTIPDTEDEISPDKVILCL
Chain of HiBiT tagged CK1α (Q16531 whole entry partner): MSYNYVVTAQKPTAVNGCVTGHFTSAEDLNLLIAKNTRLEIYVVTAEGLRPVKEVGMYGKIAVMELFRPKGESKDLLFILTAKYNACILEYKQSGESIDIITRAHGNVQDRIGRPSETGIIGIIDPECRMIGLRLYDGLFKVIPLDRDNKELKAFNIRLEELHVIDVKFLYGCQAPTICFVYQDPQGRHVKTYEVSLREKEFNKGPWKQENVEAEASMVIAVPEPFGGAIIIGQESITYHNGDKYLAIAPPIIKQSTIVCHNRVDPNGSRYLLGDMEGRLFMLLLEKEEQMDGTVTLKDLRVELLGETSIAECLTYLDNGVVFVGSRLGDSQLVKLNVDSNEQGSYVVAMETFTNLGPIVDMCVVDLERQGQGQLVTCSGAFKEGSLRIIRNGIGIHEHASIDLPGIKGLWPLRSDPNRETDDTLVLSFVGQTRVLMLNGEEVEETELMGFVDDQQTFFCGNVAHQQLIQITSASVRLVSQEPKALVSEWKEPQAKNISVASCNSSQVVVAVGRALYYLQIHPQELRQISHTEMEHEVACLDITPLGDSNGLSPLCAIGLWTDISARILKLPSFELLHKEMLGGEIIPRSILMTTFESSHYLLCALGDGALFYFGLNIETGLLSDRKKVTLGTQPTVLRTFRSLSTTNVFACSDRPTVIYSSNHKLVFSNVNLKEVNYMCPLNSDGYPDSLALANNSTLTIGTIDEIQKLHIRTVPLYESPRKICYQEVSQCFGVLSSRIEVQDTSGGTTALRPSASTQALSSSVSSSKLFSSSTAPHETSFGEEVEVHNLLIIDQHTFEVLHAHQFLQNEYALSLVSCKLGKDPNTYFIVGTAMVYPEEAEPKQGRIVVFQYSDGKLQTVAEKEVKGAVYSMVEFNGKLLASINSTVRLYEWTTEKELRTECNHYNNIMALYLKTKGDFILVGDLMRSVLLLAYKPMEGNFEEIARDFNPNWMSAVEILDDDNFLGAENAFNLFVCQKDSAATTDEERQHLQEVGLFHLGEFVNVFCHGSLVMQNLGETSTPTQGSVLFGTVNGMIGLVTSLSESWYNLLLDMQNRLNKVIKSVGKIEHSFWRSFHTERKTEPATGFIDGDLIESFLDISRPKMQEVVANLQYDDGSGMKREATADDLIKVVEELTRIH
Chain of HiBiT tagged GSPT1 (P15170 whole entry): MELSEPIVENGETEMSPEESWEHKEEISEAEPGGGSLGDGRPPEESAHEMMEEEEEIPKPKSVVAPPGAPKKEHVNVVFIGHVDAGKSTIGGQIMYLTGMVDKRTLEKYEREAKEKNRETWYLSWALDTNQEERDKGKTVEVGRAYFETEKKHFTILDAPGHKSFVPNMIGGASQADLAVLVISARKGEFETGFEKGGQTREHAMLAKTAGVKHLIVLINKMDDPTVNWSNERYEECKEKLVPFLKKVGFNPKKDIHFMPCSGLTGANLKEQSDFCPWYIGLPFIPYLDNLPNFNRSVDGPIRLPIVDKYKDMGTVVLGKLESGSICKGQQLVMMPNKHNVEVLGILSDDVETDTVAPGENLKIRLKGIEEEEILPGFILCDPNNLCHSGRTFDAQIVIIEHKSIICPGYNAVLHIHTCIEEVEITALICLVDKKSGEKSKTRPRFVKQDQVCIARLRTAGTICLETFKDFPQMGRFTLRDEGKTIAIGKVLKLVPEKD
Chain of HiBiT tagged GSPT1 (Q96SW2 whole entry): as the sequence (Q96SW2 whole entry) above
Chain of HiBiT tagged GSPT1 (Q16531 whole entry partner): as the sequence (Q16531 whole entry partner) above

- Dmax (HiBiT tagged GSPT1): 42.4%
- Dmax (HiBiT tagged CK1α): 73.8%
- DC50 (HiBiT tagged CK1α): 57.8 nM
Structure (SMILES): O=C1CCC(N2Cc3cc(C(=O)NC(c4c(F)cccc4Cl)C4CC4)ccc3C2=O)C(=O)N1 (stereo not shown) [Compound 45, N-((2-chloro-6-fluorophenyl)(cyclopropyl)methyl)-2-(2,6-dioxopiperidin-3-yl)-1-oxoisoindoline-5-carboxamide]

- Dmax (HiBiT tagged GSPT1): 25.8%
- Dmax (HiBiT tagged CK1α): 59.5%
- DC50 (HiBiT tagged CK1α): 446 nM
Structure (SMILES): O=C1CCC(N2Cc3cc(C(=O)N[C@H](c4cccc(C(F)(F)F)c4)C4CC4)ccc3C2=O)C(=O)N1 (stereo in doubt) [Compound 34, N-((*S)-cyclopropyl(3-(trifluoromethyl)phenyl)methyl)-2-(2,6-dioxopiperidin-3-yl)-1-oxoisoindoline-5-carboxamide]

- Dmax (HiBiT tagged GSPT1): 62.1%
- Dmax (HiBiT tagged CK1α): 47.9%
Structure (SMILES): Cc1cccc([C@@H](NC(=O)c2ccc3c(c2)CN(C2CCC(=O)NC2=O)C3=O)C2CC2)c1 (stereo in doubt) [Compound 30, N-((*S)-cyclopropyl(m-tolyl)methyl)-2-(2,6-dioxopiperidin-3-yl)-1-oxoisoindoline-5-carboxamide]

- Dmax (HiBiT tagged GSPT1): 60%
- Dmax (HiBiT tagged CK1α): 48.1%
Structure (SMILES): COc1cccc([C@H](NC(=O)c2ccc3c(c2)CN(C2CCC(=O)NC2=O)C3=O)C2CC2)c1 (stereo in doubt) [Compound 31, N-((*R)-cyclopropyl(3-methoxyphenyl)methyl)-2-(2,6-dioxopiperidin-3-yl)-1-oxoisoindoline-5-carboxamide]

- Dmax (HiBiT tagged GSPT1): 46%
- Dmax (HiBiT tagged CK1α): 62.3%
- DC50 (HiBiT tagged CK1α): 142 nM
Structure (SMILES): O=C1CC[C@H](N2Cc3cc(C(=O)N[C@H](c4ccc(F)cc4Cl)C4CCC4)ccc3C2=O)C(=O)N1 (racemic) [Compound 51, N-((*S)-(2-chloro-4-fluorophenyl)(cyclobutyl)methyl)-2-((*S)-2,6-dioxopiperidin-3-yl)-1-oxoisoindoline-5-carboxamide]

- Dmax (HiBiT tagged GSPT1): 70.8%
- Dmax (HiBiT tagged CK1α): 60.1%
- DC50 (HiBiT tagged CK1α): 1150 nM
Structure (SMILES): O=C1CCC(N2Cc3cc(C(=O)N[C@H](c4cccc(Cl)c4)C4CC4)ccc3C2=O)C(=O)N1 (stereo in doubt) [Compound 28, N-((*S)-(3-chlorophenyl)(cyclopropyl)methyl)-2-(2,6-dioxopiperidin-3-yl)-1-oxoisoindoline-5-carboxamide]

- Dmax (HiBiT tagged GSPT1): 27.9%
- Dmax (HiBiT tagged CK1α): 66.7%
- DC50 (HiBiT tagged CK1α): 162 nM
Structure (SMILES): N#Cc1ccccc1[C@@H](NC(=O)c1ccc2c(c1)CN(C1CCC(=O)NC1=O)C2=O)C1CC1 (stereo in doubt) [Compound 64, N-((*S)-(2-cyanophenyl)(cyclopropyl)methyl)-2-(2,6-dioxopiperidin-3-yl)-1-oxoisoindoline-5-carboxamide]

- Dmax (HiBiT tagged GSPT1): 42.7%
- Dmax (HiBiT tagged CK1α): 63.1%
- DC50 (HiBiT tagged CK1α): 237 nM
Structure (SMILES): O=C1CC[C@@H](N2Cc3cc(C(=O)N[C@H](c4ccc(F)cc4Cl)C4CCC4)ccc3C2=O)C(=O)N1 (racemic) [Compound 50, N-((*S)-(2-chloro-4-fluorophenyl)(cyclobutyl)methyl)-2-((*R)-2,6-dioxopiperidin-3-yl)-1-oxoisoindoline-5-carboxamide]

- Dmax (HiBiT tagged GSPT1): 22.5%
- Dmax (HiBiT tagged CK1α): 49.5%
Structure (SMILES): N#Cc1cccc(C(NC(=O)c2ccc3c(c2)CN(C2CCC(=O)NC2=O)C3=O)C2CC2)c1 (stereo not shown) [Compound 44, N-((3-cyanophenyl)(cyclopropyl)methyl)-2-(2,6-dioxopiperidin-3-yl)-1-oxoisoindoline-5-carboxamide]

- Dmax (HiBiT tagged GSPT1): 32.5%
- Dmax (HiBiT tagged CK1α): 61%
- DC50 (HiBiT tagged CK1α): 363 nM
Structure (SMILES): Cc1ccccc1[C@@H](NC(=O)c1ccc2c(c1)CN(C1CCC(=O)NC1=O)C2=O)C1CC1 (stereo in doubt) [Compound 39, N-((*S)-cyclopropyl(o-tolyl)methyl)-2-(2,6-dioxopiperidin-3-yl)-1-oxoisoindoline-5-carboxamide]

The next lines start with the compound.

Structure (SMILES): O=C1CCC(N2Cc3cc(C(=O)N[C@H](c4ccc(F)cc4Cl)C4CCC4)ccc3C2=O)C(=O)N1 (stereo in doubt) [Compound 73, N-((*S)-(2-chloro-4-fluorophenyl)(cyclobutyl)methyl)-2-(2,6-dioxopiperidin-3-yl)-1-oxoisoindoline-5-carboxamide]
- Dmax (HiBiT tagged GSPT1): 30.4%
- Dmax (HiBiT tagged CK1α): 71.4%
- DC50 (HiBiT tagged CK1α): 73.5 nM

Structure (SMILES): CN1CCN(c2ccc([C@@H](NC(=O)c3ccc4c(c3)CN(C3CCC(=O)NC3=O)C4=O)C3CCC3)cc2)CC1 (stereo in doubt) [Compound 21, N-((*S)-cyclobutyl(4-(4-methylpiperazin-1-yl)phenyl)methyl)-2-(2,6-dioxopiperidin-3-yl)-1-oxoisoindoline-5-carboxamide]
- Dmax (HiBiT tagged GSPT1): 20.6%
- Dmax (HiBiT tagged CK1α): 60.6%
- DC50 (HiBiT tagged CK1α): 132 nM

Structure (SMILES): O=C1CCC(N2Cc3cc(C(=O)N[C@H](c4c(F)cccc4Cl)C4CCC4)ccc3C2=O)C(=O)N1 (stereo in doubt) [Compound 69, N-((*S)-(2-chloro-6-fluorophenyl)(cyclobutyl)methyl)-2-(2,6-dioxopiperidin-3-yl)-1-oxoisoindoline-5-carboxamide]
- HiBiT GSPT1: Dmax (HiBiT tagged GSPT1; HT-1080 cells): 26%
- DC50 (HiBiT tagged CK1α): 62.7 nM
- HiBiT CK1α: Dmax (HiBiT tagged CK1α): 74%

Structure (SMILES): O=C1CCC(N2Cc3cc(C(=O)N[C@H](c4ncccc4F)C4CCC4)ccc3C2=O)C(=O)N1 (stereo in doubt) [Compound 24, N-((*S)-cyclobutyl(3-fluoropyridin-2-yl)methyl)-2-(2,6-dioxopiperidin-3-yl)-1-oxoisoindoline-5-carboxamide]
- HiBiT GSPT1: Dmax (HiBiT tagged GSPT1; HT-1080 cells): 63.1%
- DC50 (HiBiT tagged CK1α): 363 nM
- HiBiT CK1α: Dmax (HiBiT tagged CK1α): 63.2%

Structure (SMILES): O=C1CC[C@@H](N2Cc3cc(C(=O)N[C@H](c4ccc(Cl)cc4F)C4CCC4)ccc3C2=O)C(=O)N1 (racemic) [Compound 54, N-((*S)-(4-chloro-2-fluorophenyl)(cyclobutyl)methyl)-2-((*R)-2,6-dioxopiperidin-3-yl)-1-oxoisoindoline-5-carboxamide]
- HiBiT GSPT1: Dmax (HiBiT tagged GSPT1; HT-1080 cells): 47.9%
- Dmax (HiBiT tagged CK1α): 56.5%
- DC50 (HiBiT tagged CK1α): 1110 nM

Structure (SMILES): O=C1CC[C@@H](N2Cc3cc(C(=O)N[C@H](c4ccc(F)cc4Cl)C4CCC4)ccc3C2=O)C(=O)N1 (racemic) [Compound 52, N-((*S)-(2-chloro-4-fluorophenyl)(cyclobutyl)methyl)-2-((*R)-2,6-dioxopiperidin-3-yl)-1-oxoisoindoline-5-carboxamide]
- HiBiT GSPT1: Dmax (HiBiT tagged GSPT1; HT-1080 cells): 28.5%
- DC50 (HiBiT tagged CK1α): 95 nM
- HiBiT CK1α: Dmax (HiBiT tagged CK1α): 73.9%

Structure (SMILES): O=C1CC[C@H](N2Cc3cc(C(=O)N[C@H](c4ccc(F)c(F)c4)C4CCC4)ccc3C2=O)C(=O)N1 (racemic) [Compound 46, N-((*R)-cyclobutyl(3,4-difluorophenyl)methyl)-2-((*S)-2,6-dioxopiperidin-3-yl)-1-oxoisoindoline-5-carboxamide]
- Dmax (HiBiT tagged GSPT1): 32.4%
- Dmax (HiBiT tagged CK1α): 54.6%
- DC50 (HiBiT tagged CK1α): 1300 nM

Structure (SMILES): O=C1CC[C@H](N2Cc3cc(C(=O)N[C@H](c4ccc(F)cc4)C4CCCC4)ccc3C2=O)C(=O)N1 (racemic) [Compound 60, N-((*R)-cyclopentyl(4-fluorophenyl)methyl)-2-((S)-2,6-dioxopiperidin-3-yl)-1-oxoisoindoline-5-carboxamide]
- Dmax (HiBiT tagged GSPT1): 27.4%
- DC50 (HiBiT tagged CK1α): < 47.1 nM
- HiBiT CK1α: Dmax (HiBiT tagged CK1α): 49%

Structure (SMILES): Cc1ccc(NC(=O)NCc2ccc3c(c2)CN(C2CCC(=O)NC2=O)C3=O)cc1Cl (stereo not shown) [CC-885, reference compound]
- Dmax (HiBiT tagged GSPT1): 92.5%
- GSPT1 degradation (in words) (HiBiT tagged GSPT1; HT-1080 cells): effectively degraded GSPT1
- Dmax (HiBiT tagged CK1α): 53.7%
- DC50 (HiBiT tagged CK1α): 653 nM
